# Assay results from patent US11161885B2, “Antimicrobial protein” (CONSUMO EM VERDE—BIOTECNOLOGIA DAS PLANTAS, S.A., priority 2010, dated 2021).
# Columns and labels:
# Type in all cases: cell-based
# Listeria monocytogenes = test: Time-kill curves for BLAD and/or EDTA; settings: EDTA at 0.1 mg/ml alone
# Description: (§1) • MIC—Minimum Inhibitory Concentration: the lowest concentration of an antimicrobial that inhibits the visible growth of a microorganism. • MFC/MBC—Minimum Fungicidal/Bactericidal Concentration (or Minimal Lethal Concentration): the lowest concentration of an antimicrobial agent needed to kill 99.9% of the initial inoculum after 24 h under a standardized set of conditions. • Time-kill curves—Determination of the “killing” of an isolate over time by one or more antimicrobial agents under controlled conditions is known as the time-kill method. It is a broth based method where the rate of killing of a fixed inoculum is determined by sampling control (organism, no drug) and antimicrobial agent-containing tubes or flasks, at certain time intervals, and determining the survivor colony count (cfu/ml) by spreading each sample onto an agar plate.
# (§2) Time-kill curves for BLAD and/or EDTA with (A) Listeria monocytogenes, (B) Pseudomonas aeruginosa and (C) Candida albicans: see FIG. 9.
# Pseudomonas aeruginosa = test: Time-kill curves for BLAD and/or EDTA; settings: EDTA at 1 mg/ml alone
# Description: as §1, §2
# Candida albicans [1] = test: Time-kill curve and growth curve for BLAD and/or EDTA; settings: EDTA at 0.1 mg/ml alone
# Description: as §1, §2
# Candida albicans [2] = test: Growth curve in PDB pH 7 medium
# Source text: Growth curve for BLAD with Candida albicans in PDB pH 7 medium: see FIG. 4.
smiles,measurement,setting,value
"O=C(O)CN(CCN(CC(=O)O)CC(=O)O)CC(=O)O [EDTA, ethylenediaminetetraacetic acid]",activity in time-kill curve,Listeria monocytogenes,neither BLAD at 10 μg/ml nor EDTA at 0.1 mg/ml inhibits growth
same,activity in time-kill curve,Pseudomonas aeruginosa,bacteriostatic
same,activity in time-kill curve,Candida albicans [1],fungistatic
C[C@@H]1[C@H](O)[C@@H](C)/C=C/C=C/C=C/C=C/C=C/C=C/C=C/[C@H](O[C@@H]2O[C@H](C)[C@@H](O)[C@H](N)[C@@H]2O)C[C@@H]2O[C@](O)(C[C@@H](O)C[C@@H](O)[C@H](O)CC[C@@H](O)C[C@@H](O)CC(=O)O[C@H]1C)C[C@H](O)[C@H]2C(=O)O [amphotericin B],activity in growth curve,Candida albicans [2]; 10 μg/ml,fungistatic
OC(Cn1cncn1)(Cn1cncn1)c1ccc(F)cc1F [fluconazole],activity in growth curve,Candida albicans [2]; 100 μg/ml,merely delays growth
